According to patent US11008346B2, “Beta-lactamase inhibitors” (priority 2014, dated 2021):
Read-outs that look alike come from different tables or passages of the source.

Legend:
SHV-5 β-lactamase = biological target: T1, SHV-5 β-lactamase (Klebsiella pneumoniae, UniProt P0A3M1); assay: β-lactamase enzyme inhibition, SHV-5; assay type: biochemical
T1 construct: made in house; host or cells: E. coli BL21(DE3)
Description: (§1) For SHV-5, Kpc-2, p99AmpC and OXA-1 β-lactamases, E. coli BL21(DE3) bacterial cells carrying expression plasmids (expressed as native untagged proteins) for the individual β-lactamases were grown in 1 L of Superbroth (Teknova Inc. Hollister, Calif.) supplemented with 100 μg/ml kanamycin selection and 1×5052 (0.5% glycerol, 0.05% glucose and 0.2% α-lactose) at 35° C. for 18-20 hours. Cells were harvested by centrifugation (4,000×g, 4° C., 20 min), resuspended in 50 ml of 10 mM HEPES pH 7.5 ( 1/20 of the initial volume). The cells were lysed by sonication (5 pulses of 45 seconds) at 45 W on ice. The lysates were clarified by centrifugation at 10,000×g for 40 minutes at 4° C. Samples were diluted 5-fold in 50 mM sodium acetate pH 5.0, stored overnight at 4° C., after which they were centrifuged at 10,000×g for 30 minutes to clarify, and filtered through 0.45 μm filters. The samples were loaded onto a 5 ml Capto S sepharose cation exchange column (GE Healthcare) pre-equilibrated with 50 mM sodium acetate pH 5.0. The column was washed with 5 column volumes of 50 mM sodium acetate pH 5.0 to wash out unbound protein and a linear gradient of NaCl (0 to 500 mM) was used to elute the protein (over 16 CV) from the column. Fractions were assayed for […] activity using Centa (Calbiochem, Gibbstown, N.J.) or Nitrocefin (EMD Millipore chemicals, Darmstadt, Germany) as a reporter β-lactamase substrate for activity in the isolated fractions. Active fractions were pooled, concentrated and further purified by gel filtration chromatography on a Superdex 75 prep grade gel filtration column (GE Healthcare, Piscataway, N.J.) pre-equilibrated in 50 mM Hepes pH 7.5, 150 mM NaCl. Active fractions were pooled, concentrated, and quantitated by BCA protein determination (Thermo Scientific, Rockford, Ill.), dialyzed into PBS and frozen at −80° C. in 20% glycerol until use.
(§2) An equal volume of diluted enzyme stock was added, and the plates were incubated at 37° C. for 15 min. Nitrocefin was used as substrate for p99 AmpC, VIM-2 and OXA-1 and dispensed into each well at a final concentration of 100 μM. Absorbance at 486 nm was immediately monitored for 10 min using a Biotek Powerwave XS2 microplate spectrophotometer using the GEN5 software package (Biotek Instruments, Winooski Vt.). In an analogous fashion, imipenem was used as substrate for KPC-2 and Cefotaxime was used for SHV-5, while changes in absorbance upon hydrolysis of the β-lactam ring were monitored at 300 nm and 260 nm respectively in UV-transparent 96-well microtiter assay plates. Maximum rates of hydrolysis were compared to those in control wells (without inhibitors), and percentages of enzyme inhibition were calculated for each concentration of inhibitor. The concentration of inhibitor needed to reduce the initial rate of hydrolysis of substrate by 50% (IC50) was calculated as the residual activity of β-lactamase at 486 nm using GraFit version 7 kinetics software package (Erithacus Software, Surrey, UK).
(§3) Using the methodology described above, examples of the current invention were evaluated for their ability to inhibit β-lactamase enzymes from all four Ambler classifications (A through D). […] NT=Not tested.

[1] = tested on: K. pneumoniae 156319 expressing KPC-3; assay: broth microdilution MIC, K. pneumoniae KPC-3; assay type: cell-based; settings: Fixed Mero (meropenem) 4 μg/mL
Description: (§4) To determine the ability of test compounds to potentiate the inhibition of the growth of bacterial strains that produce beta-lactamase enzymes, classic cell based broth microdilution MIC assays were employed. Six bacteria strains producing beta-lactamase enzymes were used: E. coli expressing the Class A Extended Spectrum Beta-Lactamase (ESBL) CTX-M-15, E. cloacae expressing the Class C P99, K. pneumoniae expressing the Class A carbapenemase KPC-3, P. aeruginosa expressing the Class B carbapenemase VIM-2, K pneumoniae expressing the class A carbapenemase KPC-2 and the class B carbapenemase VIM-4, and S. aureus producing the Class A penicillinase PC-1. The assay was conducted in Cation Adjusted Mueller Hinton Broth (CAMHB, BD #212322, BD Diagnostic Systems, Sparks, Md.). Bacteria strains were grown for 3-5 hours in CAMBH broth. Test compounds were added to a microtiter plate in 2-fold serial dilutions in CAMHB in a final concentration range of 32 μg/mL to 0.25 μg/ml. An overlay of CAMHB containing a Beta-lactam was added to the compounds at a final static concentration of 4 μg/ml. […] In addition to the titration of test compounds the MICs of a panel of control beta-lactams is also tested to ensure the strains are behaving consistently from test to test. Once the test compound and antibiotics are added the plates can be inoculated according to CLSI broth microdilution method. After inoculation the plates are incubated for 16-20 hours at 37° C., then the Minimal Inhibitory Concentration (MIC) of the test compound is determined visually.
(§5) Using the methodology described above, examples of the current invention were evaluated for their ability to inhibit the growth of β-lactamase-producing bacteria in the presence of a β-lactam antibiotic.
(§6) Representative results are shown in Table 4 where A represents an MIC of the fixed β-lactam antibiotic in the presence of >32 µg/mL of a β-lactamase inhibitor of exemplary compounds, B represents the MIC in the presence of between 8 and 32 µg/mL of a β-lactamase inhibitor of exemplary compounds, and C represents the MIC in the presence of ≤4 µg/mL of a β-lactamase inhibitor of exemplary compounds. NT=Not Tested.

[2] = tested on: E. cloacae 144200 expressing Class C P99 AmpC; assay: broth microdilution MIC, E. cloacae P99; assay type: cell-based; settings: Fixed CAZ (ceftazidime) 4 μg/mL
Description: as §4, §5, §6

[3] = biological target: T2, VIM-2 metallo β-lactamase (Pseudomonas aeruginosa, UniProt Q9K2N0); assay: β-lactamase enzyme inhibition, VIM-2; assay type: biochemical; settings: Nitrocefin 100 μM, 486 nm; 15 min at 37° C. preincubation; read-out: IC50 VIM-2 (Class B)
T2 construct: made in house; host or cells: E. coli BL21(DE3)
Description: For VIM-2 metallo β-lactamase, the procedure was identical with the following exceptions, first the protein was not pH adjusted to pH 5 with 50 mM sodium acetate. Second, the chromatography step was changed to a 5 ml Q sepharose anion exchange column pre-equilibrated with 50 mM Hepes pH 7.5, and elution of the protein was achieved by a linear gradient of NaCl (0-600 mM). Finally, the VIM-2 purification required a second run (3rd step) on the Q sepharose anion exchange column to achieve acceptable purity (>90%).
as §2, §3

OXA-1 β-lactamase = biological target: T3, OXA-1 β-lactamase (Escherichia coli, UniProt P13661); assay: β-lactamase enzyme inhibition, OXA-1; assay type: biochemical; settings: Nitrocefin 100 μM, 486 nm; 15 min at 37° C. preincubation; read-out: IC50 OXA-1 (Class D)
T3 construct: made in house; host or cells: E. coli BL21(DE3)
Description: as §1, §2, §3

[4] = tested on: E. coli ESBL4 expressing CTX-M-15; assay: broth microdilution MIC, E. coli CTX-M-15; assay type: cell-based; settings: Fixed CAZ (ceftazidime) 4 μg/mL
Description: as §4, §5, §6

p99 AmpC β-lactamase = biological target: T4, p99 AmpC β-lactamase (Enterobacter cloacae, UniProt P05364); assay: β-lactamase enzyme inhibition, p99 AmpC; assay type: biochemical
T4 construct: made in house; host or cells: E. coli BL21(DE3)
Description: as §1, §2
Using the methodology described above, examples of the current invention were evaluated for their ability to inhibit β-lactamase enzymes from all four Ambler classifications (A through D).

KPC-2 β-lactamase = biological target: T5, KPC-2 β-lactamase (Klebsiella pneumoniae, UniProt Q9F663); assay: β-lactamase enzyme inhibition, KPC-2; assay type: biochemical
T5 construct: made in house; host or cells: E. coli BL21(DE3)
Description: as §1, §2, §3

[5] = tested on: K. pneumoniae A-1797 expressing KPC-2 and VIM-4; assay: broth microdilution MIC, K. pneumoniae KPC-2 and VIM-4; assay type: cell-based; settings: Fixed Mero (meropenem) 4 μg/mL
Description: as §4, §5, §6

[6] = imipenem substrate, 300 nm, 15 min at 37° C. preincubation, read-out: IC50 KPC-2 (Class A)

T1 sequence (P0A3M1 22-286): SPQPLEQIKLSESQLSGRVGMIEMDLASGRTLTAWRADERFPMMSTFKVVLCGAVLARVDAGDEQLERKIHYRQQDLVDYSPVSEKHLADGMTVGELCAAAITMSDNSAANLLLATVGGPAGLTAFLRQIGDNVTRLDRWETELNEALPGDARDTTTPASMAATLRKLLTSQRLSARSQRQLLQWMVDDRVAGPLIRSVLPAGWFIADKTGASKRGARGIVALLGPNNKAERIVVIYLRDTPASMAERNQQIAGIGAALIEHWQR
T4 sequence (P05364 21-381): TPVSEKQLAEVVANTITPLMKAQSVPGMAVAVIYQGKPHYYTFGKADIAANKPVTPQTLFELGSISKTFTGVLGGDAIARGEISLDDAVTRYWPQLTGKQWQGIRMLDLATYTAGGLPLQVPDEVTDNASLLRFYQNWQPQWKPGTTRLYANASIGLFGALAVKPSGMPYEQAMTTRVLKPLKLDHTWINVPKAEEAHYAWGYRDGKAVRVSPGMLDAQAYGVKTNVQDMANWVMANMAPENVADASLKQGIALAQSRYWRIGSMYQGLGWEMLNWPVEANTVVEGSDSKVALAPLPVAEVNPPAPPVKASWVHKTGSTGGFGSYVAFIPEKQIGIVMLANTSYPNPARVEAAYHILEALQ
T5 sequence (Q9F663 25-293, looked up): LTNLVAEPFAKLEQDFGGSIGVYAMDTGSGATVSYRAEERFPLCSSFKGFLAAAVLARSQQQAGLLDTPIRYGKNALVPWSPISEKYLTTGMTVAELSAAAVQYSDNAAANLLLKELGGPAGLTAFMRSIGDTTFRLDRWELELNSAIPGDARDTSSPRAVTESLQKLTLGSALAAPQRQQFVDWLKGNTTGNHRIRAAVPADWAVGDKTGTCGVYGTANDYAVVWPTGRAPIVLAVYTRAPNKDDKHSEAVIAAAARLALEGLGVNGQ
T3 sequence (P13661 26-276): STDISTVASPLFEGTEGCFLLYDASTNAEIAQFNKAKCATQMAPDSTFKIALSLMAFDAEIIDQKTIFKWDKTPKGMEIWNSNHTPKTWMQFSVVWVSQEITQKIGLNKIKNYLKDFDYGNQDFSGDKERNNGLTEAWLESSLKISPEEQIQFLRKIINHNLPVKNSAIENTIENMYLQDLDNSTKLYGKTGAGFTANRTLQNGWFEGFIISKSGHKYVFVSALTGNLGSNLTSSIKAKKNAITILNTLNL

Structure (SMILES) | IC50 (SHV-5 β-lactamase) [nM] | MIC of exemplary compounds in presence of fixed β-lactams, K.P. 156319 KPC-3 [1] | MIC of exemplary compounds in presence of fixed β-lactams, E. cl. 144200 p99 AmpC [2] | IC50 [3] [µM] | IC50 (OXA-1 β-lactamase) [nM] | MIC of exemplary compounds in presence of fixed β-lactams, E. coli ESBL4 CTX-M-15 [4] | IC50 (p99 AmpC β-lactamase) [nM] | IC50 (KPC-2 β-lactamase) [nM] | MIC of exemplary compounds in presence of fixed β-lactams, K.P. A-1797 KPC-2 VIM-4 [5] | IC50 (KPC-2 β-lactamase; [6]) [nM]
NS(=O)(=O)CCC(=O)N[C@H]1Cc2cccc(C(=O)O)c2OB1O [Example 35, (R)-2-Hydroxy-3-(3-sulfamoyl-propionylamino)-3,4-dihydro-2H-benzo[e][1,2]oxaborinin-8-carboxylic acid] | < 100 | C (C represents the MIC in the presence of ≤4 g/mL of a β-lactamase inhibitor) | C (C represents the MIC in the presence of ≤4 g/mL of a β-lactamase inhibitor) | 0.1 to 1 | < 100 | C (C represents the MIC in the presence of ≤4 g/mL of a β-lactamase inhibitor) | < 100 | < 100 | C (C represents the MIC in the presence of ≤4 g/mL of a β-lactamase inhibitor) | –
CNS(=O)(=O)CCC(=O)N[C@H]1Cc2cccc(C(=O)O)c2OB1O [Example 54, (R)-2-Hydroxy-3-(3-methylsulfamoyl-propionylamino)-3,4-dihydro-2H-benzo[e][1,2]oxaborinine-8-carboxylic acid] | < 100 | C (C represents the MIC in the presence of ≤4 g/mL of a β-lactamase inhibitor) | C (C represents the MIC in the presence of ≤4 g/mL of a β-lactamase inhibitor) | 1 to 10 | – | C (C represents the MIC in the presence of ≤4 g/mL of a β-lactamase inhibitor) | < 100 | – | B (B represents the MIC in the presence of between 8 and 32 g/mL of a β-lactamase inhibitor) | < 100
CN(C)S(=O)(=O)CCC(=O)N[C@H]1Cc2cccc(C(=O)O)c2OB1O [Example 55, (R)-3-(3-Dimethylsulfamoyl-propionylamino)-2-hydroxy-3,4-dihydro-2H-benzo[e][1,2]oxaborinine-8-carboxylic acid] | < 100 | C (C represents the MIC in the presence of ≤4 g/mL of a β-lactamase inhibitor) | C (C represents the MIC in the presence of ≤4 g/mL of a β-lactamase inhibitor) | 1 to 10 | – | C (C represents the MIC in the presence of ≤4 g/mL of a β-lactamase inhibitor) | < 100 | – | B (B represents the MIC in the presence of between 8 and 32 g/mL of a β-lactamase inhibitor) | < 100
COC(=O)NCC(=O)N[C@H]1Cc2cccc(C(=O)O)c2OB1O [Example 56, (R)-2-Hydroxy-3-(2-methoxycarbonylamino-acetylamino)-3,4-dihydro-2H-benzo[e][1,2]oxaborinine-8-carboxylicacid] | < 100 | C (C represents the MIC in the presence of ≤4 g/mL of a β-lactamase inhibitor) | C (C represents the MIC in the presence of ≤4 g/mL of a β-lactamase inhibitor) | 1 to 10 | – | C (C represents the MIC in the presence of ≤4 g/mL of a β-lactamase inhibitor) | < 100 | – | B (B represents the MIC in the presence of between 8 and 32 g/mL of a β-lactamase inhibitor) | 100 to 1000
O=C(CNC(=O)c1ccccc1)N[C@H]1Cc2cccc(C(=O)O)c2OB1O [Example 60, (R)-3-(2-Benzoylamino-acetylamino)-2-hydroxy-3,4-dihydro-2H-benzo[e][1,2]oxaborinine-8-carboxylic acid] | < 100 | B (B represents the MIC in the presence of between 8 and 32 g/mL of a β-lactamase inhibitor) | C (C represents the MIC in the presence of ≤4 g/mL of a β-lactamase inhibitor) | 10 to 100 | – | C (C represents the MIC in the presence of ≤4 g/mL of a β-lactamase inhibitor) | < 100 | – | B (B represents the MIC in the presence of between 8 and 32 g/mL of a β-lactamase inhibitor) | < 100
